According to US20030211076A1, “Compositions and methods for treatment of proliferative disorders” (priority 2003, published 2003):
Entries after “also recorded” stand apart in the source; their conditions may differ.

What was measured:
[1] = tested on: ERK1 and ERK2 MAP kinases; experiment: FGF2-stimulated MAP kinase phosphorylation, Western blot; type: cell-based
Method: Since activation of MAP kinases by FGF2 is one of the earliest mitogenic signaling events within cells (Maher), the effects of LO on FGF2-stimulated MAP kinase phosphorylation were tested by Western blot analysis using an antibody specific for phospho-extracellular signal-regulated kinases 1 and 2 (ERK1 and ERK2). The amount of total ERK1 and ERK2 MAP kinases within the same cell extracts was determined by using an antibody that recognizes both the phospho- and non-phospho-forms of ERK1 and ERK2. […] Cell extracts were prepared and equal amounts of proteins (25 μg) were analyzed by 10% SDS-PAGE. Immunoblotting was performed using antibodies specific for the active forms of ERK1 and ERK2 (A) and total ERKs (B).

[2] = tested on: transformed NIH 3T3 6-1 cells overexpressing FGF2; experiment: LO inhibition of tumor cell growth (cell counting, phase-contrast and fluorescent microscopy); type: cell-based, mouse
Method: Transformed NIH 3T3 6-1 cells (2×10^4) overexpressing FGF2 were plated and incubated overnight in 35 mm-dishes containing 2 ml 10% fetal bovine serum (FBS)/Dulbecco's Modified Eagle's (DME) medium, and then refed with 0.3% FBS/DMEM with different treatment regimens as shown in FIGS. 9A and 9B. FIG. 9A represents a dose response. Cells were treated with LO at various doses for a total of 6 days. Cultures were refed with fresh media supplemented with LO, as indicated, every two days. After treatment, cells were harvested by trypsinization and counted with a hemacytometer. FIG. 9B represents the effects of inactivation of LO by BAPN on tumor cell growth. LO was present at 25 nM and BAPN at 200 μM as indicated. Data represent the means (±sd) of three separate experiments each assessed with triplicate dishes.
Numerical and morphological alterations in tumor cells treated with LO were observed under phase-contrast microscopy (25×). FIG. 10 comprises the following: A, control; B, 25 nM LO; C, 25 nM LO+200 μM BAPN; D, 200 μM BAPN alone; and E and F, LO uptake by NIH3T3 6-1 cells. In E and F, cells grown on coverslips were exposed to FITC-conjugated LO (0.16 μg/ml) for 2 h, then fixed and examined by fluorescent microscopy (100×).

[3] = tested on: porcine pulmonary arterial vascular endothelial cells (VEC); experiment: Growth of Tat-stimulated vascular endothelial cells (cell counting, phase-contrast microscopy); type: cell-based
Method: Stimulation of cell proliferation of porcine pulmonary arterial vascular endothelial cells (VEC) was tested with LO-oxidized Tat. VEC (2×10^4) were plated and incubated overnight in 35 mm-dishes containing 2 ml 15% FBS/M199 medium, and then refed with 5% FBS/M199 with different treatment regimens as shown in A, B and C of FIG. 13. FIG. 13A represents a dose response of Tat-stimulated cell growth. Media were supplemented with Tat at the indicated doses and cells were incubated for additional 3 days. Cultures were refed once during the incubation period with fresh media supplemented with Tat at indicated doses. Cells were harvested by trypsinization and counted with a hemacytometer. FIG. 13B represents the LO inhibition of Tat-stimulated cell growth. FIG. 13C represents the effects of inactivation of LO by BAPN on Tat-stimulated cell growth. LO: 3 or 10 nM, Tat: 10 ng ml^−1, BAPN: 100 μM. Data represent the means (±sd) of three separate experiments each assessed with triplicate dishes.
Numerical and morphological alterations in Tat-stimulated VEC cells treated with LO were observed under phase-contrast microscopy (25'). Cells were cultured as described in FIG. 13 and treated with additives as indicated below. The following represents FIG. 14 phase contrast microscopy: A, control; B, 10 ng ml^−1Tat; C, 10 ng ml^−1 Tat+3 nM LO; D, 10 ng ml^−1 Tat+3 nM LO that was preincubated with 100 μM BAPN for 15 min at 370; E, 100 μM BAPN, alone, and F, 3 nM LO, alone.

[4] = tested on: human recombinant FGF2 (18 kDa); experiment: LO-catalyzed crosslinking of 125I-labeled FGF2, SDS-PAGE and autoradiography; type: biochemical; details: 5 μg 125I-FGF2 with 4 μg LO, 37° C., 1 h
Method: To determine crosslinking of FGF2 monomers as a result of its oxidation by LO, human recombinant FGF2 (18 kDa) was iodinated and ^1251-labeled FGF2 (5 μg) and was then incubated with 4 μg of LO in 0.1 M sodium borate buffer, pH 8.2 in a final volume of 100 μl, at 37° C. for 1 h. The reaction was quenched by the addition of 100 μM BAPN followed by incubation at 37° C. for 30 min. Aliquots of the incubated reaction mixtures were analyzed by SDS-PAGE (15%) and autoradiography. Lane 1 represents [^125]FGF2; lane 2 represents [^1251]FGF2+LO. The relative electrophoretic mobilities of pre-stained molecular weight standards are indicated under MW.

N#CCCN [BAPN, β-Aminopropionitrile, reference compound]
effect on LO inhibition of FGF2 activation of MAP kinases ([1]; 5 ng/ml FGF2 + 10 nM LO + 100 μM BAPN): abolished | state of phosphorylation of MAP kinases ([1]; 100 μM BAPN alone): did not affect | proliferation relative to the control ([2]; 200 μM BAPN added with 25 nM LO, 6 days): 3 fold | tumor cell growth relative to the control ([2]; 200 μM BAPN in the absence of added LO, 6 days): 2.5 fold | cell growth ([3]; 100 μM BAPN alone): had no effect on the cell growth | effect on LO inhibition of Tat-stimulated cell growth ([3]; 100 μM BAPN, LO 3 or 10 nM, Tat 10 ng/ml): totally inhibited; also recorded: cells sustained growth to confluence

lysyl oxidase [LO]
levels of phospho-MAP kinases ([1]; 5 ng/ml FGF2 and 10 nM LO, 10 min): reduced | levels of phospho-ERK1/2 ([1]; 10 nM LO without BAPN or FGF2): slightly increased | decrease of cell number compared to the control (maximal inhibition) ([2]; 25 nM LO, 6 days, 0.3% FBS/DMEM): 95% | numerical and morphological alterations in tumor cells ([2]; 25 nM LO, phase-contrast microscopy): induced cell death | Tat-dependent cell proliferation ([3]; LO at 3 nM, Tat 10 ng/ml): effectively suppressed the Tat-dependent cell proliferation to the control level; also recorded: the growth stimulating ability of Tat was inhibited | cell numbers ([3]; LO at doses ≧10 nM, Tat 10 ng/ml): severe loss in cell numbers below the control | crosslinking of FGF2 monomers [4]: induced the appearance of covalent dimers, oligomers and higher polymers
